Results reported in US20160008777A1, “PHARMACEUTICAL COMPOUNDING KIT” (Novotec Consulting Inc., priority 2014, published 2016).
Several values for one entry are separate records, joined by “and”; a condition that tells them apart may be missing. Equal values may be shown once. Where a name gives a salt, the structure may show the parent alone.

Assay: Content uniformity of the Example 2 lotion: product from ten individual pumps weighed and assayed for content of each drug
Assay type: physicochemical
Conditions: for average amount contained in a gram of lotion product: per gram of lotion; for assay values, % of label claim / USP Acceptance Value (AV): ten pump samples; for USP Acceptance Value (AV): limit of 15
Method: The content uniformity of the lotion was determined by assaying product from ten individual pumps spaced equally over the content of the bottle. After the pump was primed, product from ten pumps was collected by taking product from approximately every tenth pump. The product from each pump was weighed and assayed for content of each drug.

[1] = Example 2 lotion, average ± standard deviation of ten pump samples
[2] = Example 2 lotion, average ± standard deviation of ten pump samples, label claim 20 mg/g
[3] = Example 2 lotion, individual pump samples No. 1-10, label claim 20 mg/g (2.0%)
[4] = Example 2 lotion, individual pump samples No. 1-10, label claim 20 mg/g (2.0%), dihydrochloride

Row | Molecule | average amount contained in lotion product, % w/w (Example 2 lotion) | Mupirocin Wt. (mg/g), Average [1] | Mupirocin % Label Claim, Average [2] | Mupirocin % Label Claim [3] | Mupirocin Wt. [3] | average amount contained in a gram of lotion product (Example 2 lotion) | assay values, % of label claim (Example 2 lotion) | USP Acceptance Value (AV) (Example 2 lotion) | Cyanocobalamin Wt. (Example 2 lotion at maximum strength, individual pump samples No. 1-10, label claim 0.7 mg/g (0.07%)) | Cyanocobalamin Wt. (mg/g), Average [1] | Cyanocobalamin % Label Claim, Average (Example 2 lotion, average ± standard deviation of ten pump samples, label claim 0.7 mg/g) | Cyanocobalamin % Label Claim (Example 2 lotion, individual pump samples No. 1-10, label claim 0.7 mg/g (0.07%)) | Levocitirizine dihydrochloride Wt. (mg/g), Average [1] | Levocitirizine dihydrochloride % Label Claim, Average [2] | Levocitirizine dihydrochloride % Label Claim [4] | Levocitirizine dihydrochloride Wt. [4]
1 | C/C(=C\C(=O)OCCCCCCCCC(=O)O)C[C@@H]1OC[C@H](C[C@@H]2O[C@H]2[C@@H](C)[C@H](C)O)[C@@H](O)[C@H]1O [Mupirocin, mupirocin] | 1.93 % w/w | 19.32 ± 0.38 mg/g | 96.62 ± 1.90% | 99.60% and 96.00% (2×) and 96.10% and 95.85% and 98.55% and 95.70% and 92.90% and 98.45% and 97.00% | 19.92 mg/g and 19.20 mg/g (2×) and 19.22 mg/g and 19.17 mg/g and 19.71 mg/g and 19.14 mg/g and 18.58 mg/g and 19.69 mg/g and 19.40 mg/g | 19.32 mg | 90-110% | 6.44 | – | – | – | – | – | – | – | –
2 | cyanocobalamin | 0.07 % w/w | – | – | – | – | 0.697 mg | 90-110% | 4.45 | 0.723 mg/g and 0.711 mg/g and 0.694 mg/g and 0.696 mg/g (2×) and 0.682 mg/g (2×) and 0.701 mg/g and 0.684 mg/g and 0.699 mg/g | 0.697 ± 0.013 mg/g | 99.54 ± 1.86% | 103.29% and 101.57% and 99.14% and 99.43% (2×) and 97.43% (2×) and 100.14% and 97.71% and 99.86% | – | – | – | –
3 | O=C(O)COCCN1CCN([C@H](c2ccccc2)c2ccc(Cl)cc2)CC1 [Levocitirizine dihydrochloride, levocetirizine dihydrochloride] | 1.97 % w/w | – | – | – | – | 19.76 mg | 90-110% | 6.66 | – | – | – | – | 19.76 ± 0.55 mg/g | 98.79 ± 2.77% | 97.15% and 96.00% and 102.10% and 103.90% and 99.90% and 101.10% and 96.80% and 95.80% and 96.75% and 97.75% | 19.43 mg/g and 19.32 mg/g and 20.42 mg/g and 20.78 mg/g and 19.98 mg/g and 20.22 mg/g and 19.36 mg/g and 19.16 mg/g and 19.35 mg/g and 19.55 mg/g
